Literature values, collected in paper PMC7606817 (Journal of controlled release : official journal of the …, 2020).

Conditions: mice

[C-]#[O+] [CO, Carbon monoxide]
CO elimination half-life: 20 min
